Experimental data published in PubChem BioAssay (NCI).
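Exposure lasted 48 hours, with cells grown in 96-well plates and compounds tested at five concentrations. The concentration for full growth arrest is given as TGI.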

How the values were obtained:
Assay in all cases: DTP human tumour cell line panel, 48 h
[1] = test system: 786-0 renal
[2] = test system: LXFL 529 NSCLC
[3] = test system: M19-MEL melanoma
[4] = test system: HOP-18 NSCLC
[5] = test system: KM20L2 colon
[6] = test system: RXF-631 renal
[7] = test system: SNB-78 CNS
[8] = test system: XF 498 CNS
[9] = test system: DMS 273 small cell lung
[10] = test system: DMS 114 small cell lung
[11] = test system: DLD-1 colon

CCOC(=O)CC[C@H](NC(=O)c1ccc(CNc2nc3cc(C(F)(F)F)ccc3nc2C(=O)OCC)cc1)C(=O)OCC
TGI [1]: 18.8 µM

COc1cccc([C@@H]2C/C(=N\NC(=O)C(=O)N[C@@H](C)c3ccccc3)c3cc4c(cc3N2)OCO4)c1
TGI [1]: > 100 µM

CSC1=C(C(=O)N(COCC[Si](C)(C)C)c2ccccc2Br)CCC(C(C)(C)C)C1 (stereo not given)
TGI [1]: 26.2 µM

CCOC(=O)c1ccc(OCc2nc3cc(C(F)(F)F)ccc3nc2-c2ccccc2)cc1
TGI [1]: > 100 µM

NC(CCCNc1ccc(O)cc1)C(=O)O (stereo not given)
TGI [2]: 33.3 µM
TGI [3]: 32.7 µM
TGI [4]: > 100 µM
TGI [5]: > 100 µM
TGI [6]: > 100 µM
TGI [7]: > 100 µM
TGI [8]: 38.2 µM
TGI [9]: > 100 µM
TGI [10]: 54.1 µM
TGI [11]: 42.6 µM
TGI [1]: 31.5 µM

O=C(CC(C(=O)c1cccs1)c1ccsc1)c1ccc(Cl)cc1 (stereo not given)
TGI [1]: > 100 µM

O=C1c2ccccc2-c2nc(-c3cccs3)cc3c2c1nc1ccccc13
TGI [1]: > 100 µM

CC[C@]1(Cc2ccc(OC)c(OC)c2)C=[N+]([O-])O[C@H](OC2CCCCC2c2ccccc2)[C@@H]1OC(C)=O (stereo not given in full)
TGI [1]: > 100 µM

O=C(c1ccc(-c2ccccc2)cc1)N(Cc1cccnc1)C(=S)N(Cc1cccnc1)C(=O)c1ccc(-c2ccccc2)cc1
TGI [1]: > 100 µM

O=C1OCCC12CN(Cc1ccccc1)N=N2 (stereo not given)
TGI [1]: > 100 µM

Cc1cc(C)c(-n2c(C)c(C)c(C#N)c2N)c(C)c1
TGI [1]: > 100 µM

CC(=O)OC(=C(C#N)C#N)c1nccnc1C(=O)O
TGI [1]: > 100 µM

CC(C)NC1CCCCC2c3cc(F)ccc3[C@]12O (stereo not given in full)
TGI [2]: > 100 µM
TGI [3]: > 100 µM
TGI [4]: > 100 µM
TGI [5]: > 100 µM
TGI [7]: > 100 µM
TGI [9]: > 100 µM
TGI [10]: > 100 µM
TGI [11]: > 100 µM
TGI [1]: > 100 µM

O=C1CC(C(O)C(O)C(O)CO)CC(=O)N1 (stereo not given)
TGI [1]: > 100 µM

Nc1c(C(=O)c2ccc(Cl)cc2)[nH]c(Nc2ccc(Cl)cc2)c1C(=S)Nc1ccccc1
TGI [1]: 9.41 µM

CC(=O)Oc1c(C)cc2c(c1C)C(C)(C)CN2C(=O)C(C)(C)C
TGI [1]: > 100 µM

CC(SC(=S)N(C)C)C(=O)Nc1nnc(-c2ccc(Cl)cc2)o1 (stereo not given)
TGI [1]: 69.7 µM

Clc1ccc(-c2c3nc(c(-c4ccc(Cl)cc4)c4ccc([nH]4)c(-c4ccc(Cl)cc4)c4nc(c(-c5ccc(Cl)cc5)c5ccc2[nH]5)C=C4)C=C3)cc1
TGI [1]: > 100 µM

OC1C2CCC3C2CC(C(O)(c2ccccc2)c2ccccc2)C13 (stereo not given)
TGI [1]: > 100 µM

CSC1=NC(=O)CCN1C1OCC(OC(C)=O)C(OC(C)=O)C1OC(C)=O (stereo not given)
TGI [1]: > 31.6 µM

Cn1c(=O)c2c(nc(N3CCOCC3)n2CCCNCC(O)c2ccc(O)c(O)c2)n(C)c1=O (stereo not given)
TGI [1]: > 100 µM

Cc1c2ccccc2c(CSC(=N)N)c2ccccc12
TGI [1]: 0.745 µM

Nc1cc(N2CCOCC2)nc(=O)n1-c1ccccc1
TGI [1]: > 100 µM

COc1ccc(OC)c2sc(N3C(=O)/C(=C/c4ccc(SC)cc4)N=C3c3ccccc3)nc12
TGI [1]: > 100 µM

CCOC(=O)C1C(c2ccco2)C2(C#N)C(=N)OC1(C)C2(C#N)C#N (stereo not given)
TGI [1]: > 100 µM

CC(=O)OC1COC(n2c(O)c(N=Nc3ccc([N+](=O)[O-])cc3)c3cc(Br)c([N+](=O)[O-])cc32)C(OC(C)=O)C1OC(C)=O (stereo not given)
TGI [2]: > 100 µM
TGI [3]: > 100 µM
TGI [4]: > 100 µM
TGI [5]: > 100 µM
TGI [6]: > 100 µM
TGI [7]: 75.8 µM
TGI [8]: > 100 µM
TGI [9]: > 100 µM
TGI [11]: > 100 µM
TGI [1]: > 100 µM

CC(=O)NC1C(O)C(O)C(CO)OC1n1nc(SCc2ccccc2)c(=O)[nH]c1=O (stereo not given)
TGI [1]: > 100 µM

Clc1ccc(C2ON=C(c3ccccc3)N2C23CC4CC(CC(C4)C2)C3)cc1Cl (stereo not given)
TGI [1]: > 10 µM

NNC(=O)CC(=O)Nc1ccccc1Cl
TGI [1]: > 100 µM

Cc1ccc2c(=O)cc(-c3cc4ccccc4s3)[nH]c2n1
TGI [1]: > 100 µM

CC(=O)N(C(=O)CC(=O)NNCc1ccccc1Cl)c1ccc(Cl)cc1
TGI [1]: > 10 µM

CN(C)CCNC(=O)c1ccccc1Nc1c(Cl)cccc1Cl
TGI [2]: 32.4 µM
TGI [3]: 24.5 µM
TGI [5]: 23.4 µM
TGI [7]: 33.8 µM
TGI [8]: 22 µM
TGI [9]: 30.5 µM
TGI [11]: 37.1 µM
TGI [1]: 18.9 µM

O=C(N/C(=C\NC1=NCCS1)C(=O)N1CSC[C@@H]1C(=O)O)c1ccccc1
TGI [1]: > 100 µM

O=P1(N(CCCl)CCCl)Oc2c(Cl)cc(Cl)c(Cl)c2Cc2c(Cl)c(Cl)cc(Cl)c2O1
TGI [1]: > 100 µM

CCOC(=O)CCC(NC(=O)C(CCC(=O)OCC)NC(=O)C(Cc1ccc([N+](=O)[O-])cc1)NC(C)=O)C(=O)NNC(=O)OC(C)(C)C (stereo not given)
TGI [1]: > 100 µM

O=C1CSC(c2c[nH]c3ccccc23)N1c1cccc([N+](=O)[O-])c1 (stereo not given)
TGI [1]: > 100 µM

COC(=O)C12OCC34C(CC5C(C)C6=CC(=O)OC6=CC5(C)C3C(O)C1O)OC(=O)C(OC(C)=O)C24 (stereo not given)
TGI [2]: 31.5 µM
TGI [3]: 40.9 µM
TGI [4]: 27.9 µM
TGI [5]: 33.3 µM
TGI [6]: 33.9 µM
TGI [7]: 48.7 µM
TGI [8]: 25.4 µM
TGI [9]: 30.2 µM
TGI [10]: 35.4 µM
TGI [11]: 25.3 µM
TGI [1]: 29.1 µM

N=C1/C(=C/c2ccco2)C(=O)N=C2SC=NN12
TGI [1]: > 100 µM

COC1CC(=O)C2C(=O)N(c3ccccc3)C(=O)C23C(C(=O)c2ccccc2)=C(C)NC13O (stereo not given)
TGI [1]: 5.38 µM

Cc1ccc([N+]2=NC(c3ccc([N+](=O)[O-])cc3)=NN(c3ccccc3)C2)cc1
TGI [2]: > 100 µM
TGI [3]: > 100 µM
TGI [5]: > 100 µM
TGI [7]: > 100 µM
TGI [8]: > 100 µM
TGI [9]: > 100 µM
TGI [10]: > 100 µM
TGI [11]: > 100 µM
TGI [1]: > 100 µM

CCCCCCCCCCCCCCCCCCNc1ccn(C2OC(COP(=O)(O)OCC(COP(=O)(O)OCC3OC(n4cc(C)c(=O)[nH]c4=O)CC3N=[N+]=[N-])OCCCCCCCCCCCCCCCCCC)C(O)C2O)c(=O)n1 (stereo not given)
TGI [1]: > 100 µM

Cc1nc2ccc(F)cc2c2c1CCN2c1ccccc1
TGI [1]: > 100 µM

COCn1c(=O)n(C)c(=O)c2c1nc1c(c(=O)n(C)c(=O)n1COC)[n+]2[O-]
TGI [1]: > 100 µM
